Measurements: patent publication US20050142531A1, “Peptidically buffered formulations for electrotransport applications and methods of making” (priority 2003, published 2005)
In brackets after ≈: the same amount, converted by molar mass. Counter-ions that a name gives are not always drawn. Peptide text beside a SMILES is read from it.

How the values were obtained:
[1] = pKa, pI and % salt of peptidic buffers; type: physicochemical
[2] = Conductivities and solubilities of selected multipeptides at their pI; type: physicochemical; details: for pI: Table 1; for Solubility: at pI
Description: Table 1 lists conductivities and solubilities of selected multipeptides useful in the present invention, at their pI. The pH buffering capacity of the peptidic buffers of the present invention can be explained by using Gly-His at pH 7.5 as an example (the pI of Gly-His is 7.55). At this pH, the net charge of the molecule is essentially zero. At the pI, three species coexist. The bulk of the molecule (70%) consists of the neutral species that bears two internal charges, one positive and one negative resulting in a net charge of zero. […] Although there are small percentages of species presenting a net positive or negative charge in solution, there is minimal ionic transport of these charged species due to charge equilibrium between the three species (i.e., a positive charge migrating in the electric field will revert almost instantly to its neutral form and lose momentum or to its negative form and migrate backward). Thus, there is little if any ionic transport of the charged peptides into the systemic circulation of the patient. Due to the same principle of charge equilibrium, any depletion of the charged molecules will be compensated immediately by dissociation of the neutral form to its charged species thereby providing a reservoir insuring long term pH stability. In addition, if loss of the molecule occurs by electroosmosis of the neutral species, this will not result in any pH changes.

[3] = cited from earlier work

Structure (SMILES)	pka A (acidic pKa) ([1]; Table 2, first acidic pKa)	pka B (basic pKa) ([1]; Table 2, first basic pKa)	pka B (basic pKa) ([1]; Table 2, second basic pKa)	pI [2]	Solubility [2]	pka A (acidic pKa) ([1]; Table 2, second acidic pKa)	pKa (first value) ([3]; first listed)	pKa (second value) ([3]; second listed)	pKa (third value) ([3]; third listed)	pKa (amine) ([3]; amine)	pKa (carboxylic) ([3]; carboxylic)	pKa (enolic OH) ([3]; enolic OH)
C[C@H](NC(=O)[C@@H](N)Cc1c[nH]cn1)C(=O)O [His-Ala] (H-His-Ala-OH; N-terminus and C-terminus assumed)	2.48	6.10	7.80	6.95	500 mM (≈ 113 mg/mL)							
N[C@@H](Cc1c[nH]cn1)C(=O)N[C@@H](CCC(=O)O)C(=O)O [His-Glu] (H-His-Glu-OH; N-terminus and C-terminus assumed)	2.30	6.32	8.07	5.20	400 mM (≈ 114 mg/mL)	4.19						
N[C@@H](Cc1c[nH]cn1)C(=O)N[C@@H](CC(=O)O)C(=O)O [His-Asp] (H-His-Asp-OH; N-terminus and C-terminus assumed)	2.28	6.45	8.19	5.22	50 mM (≈ 13.5 mg/mL)	3.99						
NCCCC[C@H](N)C(=O)N[C@@H](CCC(=O)O)C(=O)O [Lys-Glu] (H-Lys-Glu-OH; N-terminus and C-terminus assumed)	2.74	7.92	11.12	6.06	500 mM (≈ 138 mg/mL)	4.18						
CO/N=C(\C(=O)N[C@@H]1C(=O)N2C(C(=O)O)=C(CSc3nc(C)c(CC(=O)O)s3)CS[C@H]12)c1csc(N)n1 [Cefodizime disodium salt]							2.85	3.37	4.18			
NCC(=O)N[C@@H](Cc1c[nH]cn1)C(=O)O [Gly-His] (H-Gly-His-OH; N-terminus and C-terminus assumed)	2.42	6.71	8.39	7.55	1000 mM (≈ 212 mg/mL)							
N[C@@H](Cc1c[nH]cn1)C(=O)NCC(=O)O [His-Gly] (H-His-Gly-OH; N-terminus and C-terminus assumed)	2.41	5.90	7.91	6.90	1000 mM (≈ 212 mg/mL)							
CC(C)[C@H](N)C(=O)N[C@@H](Cc1c[nH]cn1)C(=O)O [Val-His] (H-Val-His-OH; N-terminus and C-terminus assumed)	3.09	6.83	7.94	7.38	200 mM (≈ 50.9 mg/mL)							
CO/N=C(\C(=O)N[C@@H]1C(=O)N2C(C(=O)O)=C(CSc3nc(=O)c(=O)[nH]n3C)CS[C@H]12)c1csc(N)n1 [ceftriaxone]										3.2	3	4.1
NCCCC[C@H](N)C(=O)N[C@@H](CC(=O)O)C(=O)O [Lys-Asp] (H-Lys-Asp-OH; N-terminus and C-terminus assumed)	2.64	8.05	11.20	6.08	1000 mM (≈ 261 mg/mL)	4.10						
CC(C)[C@H](NC(=O)[C@@H](N)Cc1c[nH]cn1)C(=O)O [His-Val] (H-His-Val-OH; N-terminus and C-terminus assumed)	3.18	6.10	7.80									
NCCCC[C@H](NC(=O)[C@@H](N)CCC(=O)O)C(=O)O [Glu-Lys] (H-Glu-Lys-OH; N-terminus and C-terminus assumed)	2.85	7.94	11.07	6.00	1000 mM (≈ 275 mg/mL)	4.01						
N[C@@H](Cc1ccc(O)cc1)C(=O)N[C@@H](Cc1c[nH]cn1)C(=O)O [Tyr-His] (H-Tyr-His-OH; N-terminus and C-terminus assumed)	2.42	6.71	7.60			9.90						
Cn1cncc1C[C@H](NC(=O)CCN)C(=O)O [Anserine]	2.64	7.04	9.49									
N=C(N)NCCC[C@H](NC(=O)[C@@H](N)Cc1ccc(O)cc1)C(=O)O [Tyr-Arg]	2.64	7.39	11.62			9.36						
CC[C@H](C)[C@H](N)C(=O)N[C@@H](Cc1c[nH]cn1)C(=O)O [Isoleucine-His] (H-Ile-His-OH; N-terminus and C-terminus assumed)	2.42	6.71	8.20									
CC(C)C[C@H](N)C(=O)N[C@@H](Cc1c[nH]cn1)C(=O)O [Leu-His] (H-Leu-His-OH; N-terminus and C-terminus assumed)	2.42	6.71	8.25									
